Experimental data from patent US11767322B2 (BRISTOL-MYERS SQUIBB COMPANY, priority 2020, dated 2023).
Where two headings read alike, the source gives them in different places.

Assays:
[1] = target: T1, His-GST-TVMV-hRIPK1(1-324) (Homo sapiens, UniProt Q13546); assay: biochemical; type: binding; settings: HTRF probe displacement, 1 h at rt; read-out: RIPK1 IC50
T1 construct: The coding region of human RIPK1(1-324) flanked by NdeI site at 5′ end; made in house; host or cells: Spodoptera frugiperda Sf9 insect cells (baculovirus, Bac-to-Bac)
T1 sequence (Q13546 1-324): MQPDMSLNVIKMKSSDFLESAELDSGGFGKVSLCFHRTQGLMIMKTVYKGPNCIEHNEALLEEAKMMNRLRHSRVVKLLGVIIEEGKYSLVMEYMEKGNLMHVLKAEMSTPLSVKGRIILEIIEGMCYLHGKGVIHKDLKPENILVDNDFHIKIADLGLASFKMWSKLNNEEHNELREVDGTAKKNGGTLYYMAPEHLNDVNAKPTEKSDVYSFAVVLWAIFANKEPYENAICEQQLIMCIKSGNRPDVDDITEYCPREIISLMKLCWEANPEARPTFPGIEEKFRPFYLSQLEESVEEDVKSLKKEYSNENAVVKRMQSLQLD

[2] = tested on: MLKL phosphorylation in HT29-L23 human colorectal adenocarcinoma cells; assay: MLKL phosphorylation high-content assay; type: cell-based; settings: necroptosis induced with TNFα, SMAC mimetic and Z-VAD, 6 h, maximal inhibition defined by Nec1s
[3] = target: GST-tagged PIK3Cδ in complex with PIK3R1 (Homo sapiens, UniProt O00329); assay: PI3Kδ HTRF binding assay; settings: read-out: PIK3CD IC50
[4] = read-out: pMLKL IC50, HT29-L23 cells
[5] = HTRF probe displacement, 1 h at rt
[6] = Homo sapiens, read-out: pMLKL IC50, HT29-L23 cells

Chain of GST-tagged PIK3Cδ in complex with PIK3R1 (O00329 whole entry): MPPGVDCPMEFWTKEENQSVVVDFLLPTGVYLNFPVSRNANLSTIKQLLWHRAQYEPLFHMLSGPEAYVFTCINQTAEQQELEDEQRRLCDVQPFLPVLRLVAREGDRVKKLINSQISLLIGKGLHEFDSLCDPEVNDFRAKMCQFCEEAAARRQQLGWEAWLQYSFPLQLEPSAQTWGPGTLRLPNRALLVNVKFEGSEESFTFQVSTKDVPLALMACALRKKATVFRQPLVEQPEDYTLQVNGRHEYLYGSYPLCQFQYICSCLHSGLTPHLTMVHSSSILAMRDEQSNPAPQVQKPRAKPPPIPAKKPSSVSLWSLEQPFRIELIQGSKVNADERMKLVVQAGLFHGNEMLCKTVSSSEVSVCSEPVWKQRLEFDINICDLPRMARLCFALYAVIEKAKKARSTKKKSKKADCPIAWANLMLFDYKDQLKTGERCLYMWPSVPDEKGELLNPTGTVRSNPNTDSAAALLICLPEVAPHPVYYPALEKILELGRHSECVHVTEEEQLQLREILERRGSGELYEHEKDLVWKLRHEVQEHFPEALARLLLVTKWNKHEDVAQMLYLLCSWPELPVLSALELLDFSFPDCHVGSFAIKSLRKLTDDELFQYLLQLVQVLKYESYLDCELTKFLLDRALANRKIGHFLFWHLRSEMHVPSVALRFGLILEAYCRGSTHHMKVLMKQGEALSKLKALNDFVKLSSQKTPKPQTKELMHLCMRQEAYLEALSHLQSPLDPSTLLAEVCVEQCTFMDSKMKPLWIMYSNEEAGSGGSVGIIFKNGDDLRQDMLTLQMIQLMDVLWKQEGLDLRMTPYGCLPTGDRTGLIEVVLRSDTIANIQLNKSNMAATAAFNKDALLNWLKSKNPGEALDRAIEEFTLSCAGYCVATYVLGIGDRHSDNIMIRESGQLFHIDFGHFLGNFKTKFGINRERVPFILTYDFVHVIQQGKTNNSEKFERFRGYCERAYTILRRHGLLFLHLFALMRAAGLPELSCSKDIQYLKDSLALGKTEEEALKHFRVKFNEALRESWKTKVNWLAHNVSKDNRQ
Chain of GST-tagged PIK3Cδ in complex with PIK3R1 (P27986 whole entry partner): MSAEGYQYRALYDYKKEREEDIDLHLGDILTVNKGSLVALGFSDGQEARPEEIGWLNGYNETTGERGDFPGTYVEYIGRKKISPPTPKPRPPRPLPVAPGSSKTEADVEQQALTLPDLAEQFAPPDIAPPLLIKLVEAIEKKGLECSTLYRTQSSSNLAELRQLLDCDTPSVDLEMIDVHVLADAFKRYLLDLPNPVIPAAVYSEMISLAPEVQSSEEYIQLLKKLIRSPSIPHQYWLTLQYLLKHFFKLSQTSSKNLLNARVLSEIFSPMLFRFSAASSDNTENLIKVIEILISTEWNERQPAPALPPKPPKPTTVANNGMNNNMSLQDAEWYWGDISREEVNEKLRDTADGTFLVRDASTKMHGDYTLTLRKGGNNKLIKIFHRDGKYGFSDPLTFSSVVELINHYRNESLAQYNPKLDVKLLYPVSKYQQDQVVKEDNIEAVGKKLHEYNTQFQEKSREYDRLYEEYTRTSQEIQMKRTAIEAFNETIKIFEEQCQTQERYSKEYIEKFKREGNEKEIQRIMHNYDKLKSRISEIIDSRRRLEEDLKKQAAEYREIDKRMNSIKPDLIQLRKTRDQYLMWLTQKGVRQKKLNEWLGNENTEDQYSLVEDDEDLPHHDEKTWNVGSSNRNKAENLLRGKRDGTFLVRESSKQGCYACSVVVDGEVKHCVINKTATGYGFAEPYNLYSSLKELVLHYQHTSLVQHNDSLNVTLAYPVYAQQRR

## [2H]C([2H])([2H])C(O)(c1ccc(F)cc1)C(F)CNC(=O)c1c(Cl)ccc(-c2ccn3nc(N)nc3c2)c1F (single isomer, unassigned) [Example 239, 3-(2-amino-[1,2,4]triazolo[1,5-a]pyridin-7-yl)-6-chloro-2-fluoro-N-(2-fluoro-3-(4-fluorophenyl)-3-hydroxybutyl-4,4,4-d3)benzamide]
[1]
  IC50: 55 nM
[2]; [4]
  IC50: 26 nM
[3]; [5]
  IC50: > 15000 nM

## Cc1cc(F)c(-c2ccn3nc(N)nc3c2)cc1C(=O)NCC(F)(F)C(O)c1ccc(F)cc1 (single isomer, unassigned) [Example 98, 5-(2-amino-[1,2,4]triazolo[1,5-a]pyridin-7-yl)-N-(2,2-difluoro-3-(4-fluorophenyl)-3-hydroxypropyl)-4-fluoro-2-methylbenzamide]
[1]
  IC50: 2.8 nM
[2]; [4]
  IC50: 1.2 nM
[3]; [5]
  IC50: > 15000 nM

## Nc1nc2cc(-c3ccc(Cl)c(C(=O)NCC(F)(F)C(O)c4ccc(Cl)c(Cl)c4)c3F)ccn2n1 (single isomer, unassigned) [Example 264, 3-{2-amino-[1,2,4]triazolo[1,5-a]pyridin-7-yl}-6-chloro-N-[3-(3,4-dichlorophenyl)-2,2-difluoro-3-hydroxypropyl]-2-fluorobenzamide]
[1]
  IC50: 6.2 nM
[2]; [4]
  IC50: 1 nM
[3]; [5]
  IC50: > 15000 nM

## Cc1ccc(-c2ccn3nc(N)nc3c2)c(F)c1C(=O)NCCC(O)c1ccc(Cl)c(Cl)c1 (single isomer, unassigned) [Example 33, 3-(2-amino-[1,2,4]triazolo[1,5-a]pyridin-7-yl)-N-(3-(3,4-dichlorophenyl)-3-hydroxypropyl)-2-fluoro-6-methylbenzamide]
[1]
  IC50: 1 nM
[2]; [6]
  IC50: 0.7 nM
[3]; [5]
  IC50: > 15000 nM

## Cc1ccc(-c2ccn3nc(N)nc3c2)c(F)c1C(=O)NCCC(C)(C)c1ccccc1 [Example 58, 3-(2-amino-[1,2,4]triazolo[1,5-a]pyridin-7-yl)-2-fluoro-6-methyl-N-(3-methyl-3-phenylbutyl)benzamide]
[1]
  IC50: 2.1 nM
[2]; [6]
  IC50: 2.3 nM
[3]; [5]
  IC50: > 15000 nM

## Nc1nc2cc(-c3ccc(Cl)c(C(=O)NCC(F)(F)C(O)c4ccc(Cl)c(F)c4)c3F)ccn2n1 (stereo not drawn) [Example 191]
[1]
  IC50: 2.6 nM
[2]; [4]
  IC50: 1.4 nM
[3]; [5]
  IC50: > 15000 nM

## Nc1nc2cc(-c3ccc(Cl)c(C(=O)NCC[C@H](O)c4ccc(Cl)cc4)c3F)ccn2n1 [Example 153, (S)-3-(2-amino-[1,2,4]triazolo[1,5-a]pyridin-7-yl)-6-chloro-N-(3-(4-chlorophenyl)-3-hydroxypropyl)-2-fluorobenzamide]
[1]
  IC50: 4.1 nM
[2]; [6]
  IC50: 8.3 nM
[3]; [5]
  IC50: > 15000 nM

## Cc1ccc(-c2ccn3nc(N)nc3c2)c(F)c1C(=O)NCCC(C)(O)c1ccc(Cl)cc1 (single isomer, unassigned) [Example 60, 3-(2-amino-[1,2,4]triazolo[1,5-a]pyridin-7-yl)-N-(3-(4-chlorophenyl)-3-hydroxybutyl)-2-fluoro-6-methylbenzamide]
[1]
  IC50: 1 nM
[2]; [4]
  IC50: 1.3 nM
[3]; [5]
  IC50: > 15000 nM

## Nc1nc2cc(-c3ccc(Cl)c(C(=O)NC[C@H](F)[C@H](O)c4ccc(F)cc4)c3F)ccn2n1 (single isomer, unassigned) [Example 299]
[1]
  IC50: 16 nM
[2]; [6]
  IC50: 37 nM
[3]; [5]
  IC50: 10000 nM

## Nc1nc2cc(-c3ccc(C(F)F)c(C(=O)NCC(F)(F)[C@@H](O)c4ccc(F)cc4)c3F)ccn2n1 [Example 295, (S)-3-(2-amino-[1,2,4]triazolo[1,5-a]pyridin-7-yl)-N-(2,2-difluoro-3-(4-fluorophenyl)-3-hydroxypropyl)-6-(difluoromethyl)-2-fluorobenzamide]
[1]
  IC50: 3.3 nM
[2]; [6]
  IC50: 1.4 nM
[3]; [5]
  IC50: > 15000 nM

## (S)-3-(2-amino-[1,2,4]triazolo[1,5-a]pyridin-7-yl)-6-cyclopropyl-N-(2,2-difluoro-3-(4-fluorophenyl)-3-hydroxypropyl)-2-fluorobenzamide [Example 304]
[1]
  IC50: 4.8 nM
[2]; HT29-L23 cells, read-out: pMLKL IC50
  IC50: 2.8 nM
[3]
  IC50: > 15000 nM

## Cc1ccc(-c2ccn3nc(N)nc3c2)c(F)c1C(=O)NCCC(O)c1ccc(C(F)(F)F)cc1 (single isomer, unassigned) [Example 57, 3-(2-amino-[1,2,4]triazolo[1,5-a]pyridin-7-yl)-2-fluoro-N-(3-hydroxy-3-(4-(trifluoromethyl)phenyl)propyl)-6-methylbenzamide]
[1]
  IC50: 3.1 nM
[2]; [4]
  IC50: 1.9 nM
[3]; [5]
  IC50: > 15000 nM

## COc1ccc(-c2ccn3nc(N)nc3c2)c(F)c1C(=O)NCC(F)(F)C(O)c1ccc(Cl)c(Cl)c1 (stereo not drawn) [Example 267, 3-{2-amino-[1,2,4]triazolo[1,5-a]pyridin-7-yl}-N-[3-(3,4-dichlorophenyl)-2,2-difluoro-3-hydroxypropyl]-2-fluoro-6-methoxybenzamide]
[1]
  IC50: 2.8 nM
[2]; [4]
  IC50: 1 nM
[3]; [5]
  IC50: > 15000 nM

## COc1ccc(-c2ccn3nc(N)nc3c2)c(F)c1C(=O)NCC[C@@H](O)c1ccc(Cl)cc1 [Example 148, (R)-3-(2-amino-[1,2,4]triazolo[1,5-a]pyridin-7-yl)-N-(3-(4-chlorophenyl)-3-hydroxypropyl)-2-fluoro-6-methoxybenzamide]
[1]
  IC50: 8.3 nM
[2]; [6]
  IC50: 17 nM
[3]
  IC50: 5000 nM

## Nc1nc2cc(-c3ccc(Cl)c(C(=O)NCC(F)(F)C(O)c4cc(F)cc(F)c4)c3F)ccn2n1 (stereo not drawn) [Example 189, 3-(2-amino-[1,2,4]triazolo[1,5-a]pyridin-7-yl)-6-chloro-N-(3-(3,5-difluorophenyl)-2,2-difluoro-3-hydroxypropyl)-2-fluorobenzamide]
[1]
  IC50: 11 nM
[2]; [4]
  IC50: 38 nM
[3]; [5]
  IC50: 5600 nM

## Cc1ccc(-c2ccn3nc(N)nc3c2)c(F)c1C(=O)NCC(F)(F)C(O)c1ccc(F)cn1 (stereo not drawn) [Example 269, 3-{2-amino-[1,2,4]triazolo[1,5-a]pyridin-7-yl}-N-[2,2-difluoro-3-(5-fluoropyridin-2-yl)-3-hydroxypropyl]-2-fluoro-6-methylbenzamide]
[1]
  IC50: 4.6 nM
[2]; [4]
  IC50: 1.5 nM
[3]; [5]
  IC50: > 15000 nM

## Nc1nc2cc(-c3ccc(Cl)c(C(=O)NCCC4(c5ccc(F)cc5)CC4)c3F)ccn2n1 [Example 84, 3-(2-amino-[1,2,4]triazolo[1,5-a]pyridin-7-yl)-6-chloro-2-fluoro-N-(2-(1-(4-fluorophenyl)cyclopropyl)ethyl)benzamide]
[1]
  IC50: 1.6 nM
[2]; [6]
  IC50: 1.1 nM
[3]; [5]
  IC50: > 15000 nM

## Cc1ccc(-c2ccn3nc(N)nc3c2)c(Cl)c1C(=O)NCC[C@H](O)c1ccc(Cl)cc1 [Example 145, (S)-3-(2-amino-[1,2,4]triazolo[1,5-a]pyridin-7-yl)-2-chloro-N-(3-(4-chlorophenyl)-3-hydroxypropyl)-6-methylbenzamide]
[1]
  IC50: 21 nM
[2]; [6]
  IC50: 35 nM
[3]; [5]
  IC50: > 15000 nM

## Cc1ccc(-c2ccn3nc(N)nc3c2)c(F)c1C(=O)NCCC(O)c1c(F)cccc1F (single isomer, unassigned) [Example 74, 3-(2-amino-[1,2,4]triazolo[1,5-a]pyridin-7-yl)-Nr-(3-(2,6-difluorophenyl)-3-hydroxypropyl)-2-fluoro-6-methylbenzamide]
[1]
  IC50: 13 nM
[2]; [6]
  IC50: 8.2 nM
[3]; [5]
  IC50: > 15000 nM

## Cc1ccc(-c2ccn3nc(N)nc3c2)c(F)c1C(=O)NCC(F)(F)C(C)(O)c1ccc(Cl)cc1 (single isomer, unassigned) [Example 222, 3-(2-amino-[1,2,4]triazolo[1,5-a]pyridin-7-yl)-N-(3-(4-chlorophenyl)-2,2-difluoro-3-hydroxybutyl)-2-fluoro-6-methylbenzamide]
[1]
  IC50: 3.2 nM
[2]; [4]
  IC50: 1 nM
[3]; [5]
  IC50: > 15000 nM

## Nc1nc2cc(-c3ccc(F)c(C(=O)NCCC4(c5ccc(F)cc5)CC4)c3F)ccn2n1 [Example 249, 3-(2-amino-[1,2,4]triazolo[1,5-a]pyridin-7-yl)-2,6-difluoro-N-(2-(1-(4-fluorophenyl)cyclopropyl)ethyl)benzamide]
[1]
  IC50: 2.1 nM
[2]; [6]
  IC50: 10 nM
[3]; [5]
  IC50: > 15000 nM

## Cc1ccc(-c2ccn3nc(N)nc3c2)c(F)c1C(=O)NCCCC1CCCCC1 [Example 52, 3-(2-amino-[1,2,4]triazolo[1,5-a]pyridin-7-yl)-N-(3-cyclohexylpropyl)-2-fluoro-6-methylbenzamide]
[1]
  IC50: 0.3 nM
[2]; [6]
  IC50: 1.1 nM
[3]; [5]
  IC50: > 15000 nM

## Cc1ccc(-c2ccn3nc(N)nc3c2)c(F)c1C(=O)NCC(F)(F)C(O)c1ccc(Cl)cc1 (stereo not drawn) [Example 29, 3-(2-amino-[1,2,4]triazolo[1,5-a]pyridin-7-yl)-N-(3-(4-chlorophenyl)-2,2-difluoro-3-hydroxypropyl)-2-fluoro-6-methylbenzamide]
[1]
  IC50: 2.2 nM
[2]; [6]
  IC50: 0.7 nM
[3]; [5]
  IC50: > 15000 nM

## Cc1ccc(-c2ccn3nc(N)nc3c2)c(F)c1C(=O)NC(C)CC(O)c1ccc(F)cc1 (stereo not drawn) [Example 35, 3-(2-amino-[1,2,4]triazolo[1,5-a]pyridin-7-yl)-2-fluoro-N-(4-(4-fluorophenyl)-4-hydroxybutan-2-yl)-6-methylbenzamide]
[1]
  IC50: 2 nM
[2]; [6]
  IC50: 0.9 nM
[3]; [5]
  IC50: 3900 nM
